Measured values from US20130217655A1, “COMPOSITIONS FOR TREATING PSORIASIS OF THE SCALP” (Dermipsor Ltd., priority 2010, published 2013).

Assay: skin penetration of calcipotriol from the formulation
Settings: calcipotriol in the present formulation, topical

penetration of the skin: does not penetrate the skin
SMILES: C=C1/C(=C\C=C2/CCC[C@]3(C)[C@@H]([C@H](C)/C=C/[C@@H](O)C4CC4)CC[C@@H]23)C[C@@H](O)C[C@@H]1O [Calcipotriol]
